Reference: patent US10689344B2, “Biphenylamide derivative Hsp90 inhibitors” (University of Kansas, priority 2013, dated 2020)
Blank lines part the entries; values can stand above or below the compound they belong to.

How the values were obtained:
[1] = tested on: SKBr3 (estrogen receptor negative, HER2 over-expressing breast cancer cells); assay: Anti-proliferation assay (MTS/PMS, 72 h), SKBr3; format: cell-based; conditions: Homo sapiens
Protocol: (§1) Cells were maintained in a 1:1 mixture of Advanced DMEM/F12 (Gibco) supplemented with non-essential amino acids, L-glutamine (2 mM), streptomycin (500 μg/mL), penicillin (100 units/mL), and 10% FBS. Cells were grown to confluence in a humidified atmosphere (37° C., 5% CO2), seeded (2000/well, 100 μL) in 96-well plates, and allowed to attach overnight. Compound at varying concentrations in DMSO (1% DMSO final concentration) was added, and cells were returned to the incubator for 72 h. At 72 h, the number of viable cells was determined using an MTS/PMS cell proliferation kit (Promega) per the manufacturer's instructions. Cells incubated in 1% DMSO were used at 100% proliferation, and values were adjusted accordingly. IC50 values were calculated from separate experiments performed in triplicate using GraphPad Prism.
(§2) Anti-proliferative studies with the compounds described herein were performed against the SKBr3 (estrogen receptor negative, HER2 over-expressing breast cancer cells) and MCF-7 (estrogen receptor positive breast cancer cells) breast cancer cell lines. […] In some embodiments, in contrast to the novobiocin derivatives, which usually manifest better anti-proliferative activities against the SKBr3 cell line, the biphenyl derivatives described herein were more efficacious against the MCF-7 cell line. In general, all substitutions on the phenyl ring were determined to be beneficial, consistent with the existence of a hydrophobic pocket in this region of the Hsp90 C-terminal binding site.

[2] = tested on: MCF-7 (estrogen receptor positive breast cancer cells); assay: Anti-proliferation assay (MTS/PMS, 72 h), MCF-7; format: cell-based; conditions: Homo sapiens
Protocol: as §1, §2

[3] = SK-BR-3, Table 8, para-para biphenyl core with substituted biphenylamide group
[4] = MCF7, Table 8, para-para biphenyl core with substituted biphenylamide group
[5] = SK-BR-3, Table 3, substituted para-para biphenyl core
[6] = MCF7, Table 3, substituted para-para biphenyl core
[7] = SK-BR-3, Table 1, ortho, meta and para biphenyl cores
[8] = MCF7, Table 1, ortho, meta and para biphenyl cores
[9] = SK-BR-3, Table 11, heteroatom linked biphenyl core
[10] = MCF7, Table 11, heteroatom linked biphenyl core
[11] = SK-BR-3, Table 6, para-para biphenyl core with substituted benzylamide
[12] = MCF7, Table 6, para-para biphenyl core with substituted benzylamide
[13] = SK-BR-3, Table 4, para-para heteroatom substituted biphenyl core
[14] = MCF7, Table 4, para-para heteroatom substituted biphenyl core

Compound: COc1cccc(-c2cc(C(=O)Nc3ccc(-c4ccc(OC5CCN(C)CC5)cc4NC(C)=O)cc3)ccc2OC)c1 [Compound 39b, N-(2′-acetamido-4′-((1-methylpiperidin-4-yl)oxy)-[1,1′-biphenyl]-4-yl)-3′,6-dimethoxy-[1,1′-biphenyl]-3-carboxamide]
IC50 [1, 5]: 3390 ± 660 nM | IC50 [2, 6]: 1360 ± 230 nM

Compound: COc1ccc(C(=O)Nc2ccc(Nc3ccc(OC4CCN(C)CC4)cc3)cc2)cc1 [drawing 159]
IC50 [1, 9]: 18200 ± 2190 nM | IC50 [2, 10]: 2830 ± 1870 nM

Compound: COc1cccc(-c2cc(C(=O)Nc3ccc(-c4ccc(OC5CC6CCC(C5)N6C)cc4)cc3)ccc2OC)c1 [Compound 56b, 3′,6-dimethoxy-N-(4′-(((1R,3s,5S)-8-methyl-8-azabicyclo[3.2.1]octan-3-yl)oxy)-[1,1′-biphenyl]-4-yl)-[1,1′-biphenyl]-3-carboxamide]
IC50 ([1]; SK-BR-3, Table 7, para-para biphenyl core with modified ether groups): 1670 ± 600 nM | IC50 ([2]; MCF7, Table 7, para-para biphenyl core with modified ether groups): 1320 ± 230 nM

Compound: COc1cccc(-c2cc(C(=O)Nc3ccc(-c4ccc(OC5CCN(C)CC5)cc4)c(Cl)c3)ccc2OC)c1 [Compound 29k, N-(2-chloro-4′-((1-methylpiperidin-4-yl)oxy)-[1,1′-biphenyl]-4-yl)-3′,6-dimethoxy-[1,1′-biphenyl]-3-carboxamide]
IC50 [1, 5]: 2210 ± 180 nM | IC50 [2, 6]: 3440 ± 210 nM

Compound: COc1cccc(-c2cc(C(=O)Nc3ccc(-c4ccc(OC5CCN(C)CC5)cc4)cc3C)ccc2OC)c1 [Compound 29d, 3′,6-dimethoxy-N-(3-methyl-4′-((1-methylpiperidin-4-yl)oxy)-[1,1′-biphenyl]-4-yl)-[1,1′-biphenyl]-3-carboxamide]
IC50 [1, 5]: 2470 ± 390 nM | IC50 [2, 6]: 1430 ± 350 nM

Compound: CN1CCC(Oc2ccc(-c3cccc(NC(=O)c4ccc5ccccc5c4)c3)cc2)CC1 [Compound 6q]
IC50 ([1]; SK-BR-3, Table 2, para-meta biphenyl core with substituted benzylamide): 2090 ± 340 nM | IC50 ([2]; MCF7, Table 2, para-meta biphenyl core with substituted benzylamide): 1660 ± 270 nM

Compound: COc1cccc(-c2cc(C(=O)Nc3ccc(-c4ccc(OC5CCN(C)CC5)cn4)cc3)ccc2OC)c1 [Compound 19b, 3′,6-dimethoxy-N-(4-(5-((1-methylpiperidin-4-yl)oxy)pyridin-2-yl)phenyl)-[1,1′-biphenyl]-3-carboxamide]
IC50 [1, 13]: 1910 ± 210 nM | IC50 [2, 14]: 1300 ± 150 nM

Compound: COc1cccc(-c2cc(C(=O)Nc3ccc(-c4ccc(OC5CCN(C)CC5)cc4)cc3N)ccc2OC)c1 [Compound 38d, N-(3-amino-4′-((1-methylpiperidin-4-yl)oxy)-[1,1′-biphenyl]-4-yl)-3′,6-dimethoxy-[1,1′-biphenyl]-3-carboxamide]
IC50 [1, 5]: 3210 ± 450 nM | IC50 [2, 6]: 2250 ± 490 nM

Compound: COc1cccc(-c2cc(C(=O)Nc3ccc(-c4ccc(OC5CCN(C)CC5)cc4)cc3Cl)ccc2OC)c1 [Compound 29l, N-(3-chloro-4′-((1-methylpiperidin-4-yl)oxy)-[1,1′-biphenyl]-4-yl)-3′,6-dimethoxy-[1,1′-biphenyl]-3-carboxamide]
IC50 [1, 5]: 4750 nM | IC50 [2, 6]: 1800 ± 190 nM

Compound: COc1cccc(-c2cc(C(=O)Nc3ccc(-c4ccc(OC5CCN(C)CC5)cc4)cc3NC(C)=O)ccc2OC)c1 [Compound 39d, N-(3-acetamido-4′-((1-methylpiperidin-4-yl)oxy)-[1,1′-biphenyl]-4-yl)-3′,6-dimethoxy-[1,1′-biphenyl]-3-carboxamide]
IC50 [1, 5]: 3510 ± 560 nM | IC50 [2, 6]: 1660 ± 590 nM

Compound: CN1CCC(Oc2ccc(Nc3ccc(NC(=O)c4ccc(Cl)cc4)cc3)cc2)CC1
IC50 [1, 9]: 6440 ± 2610 nM | IC50 [2, 10]: 7100 nM

Compound: COc1cccc(-c2cc(C(=O)Nc3ccc(-c4ccc(OC5CCN(C)CC5)cc4OC)cc3)ccc2OC)c1 [Compound 29f, 3′,6-dimethoxy-N-(2′-methoxy-4′-((1-methylpiperidin-4-yl)-oxy)-[1,1′-biphenyl]-4-yl)-[1,1′-biphenyl]-3-carboxamide]
IC50 [1, 5]: 1410 ± 350 nM | IC50 [2, 6]: 1350 ± 160 nM

Compound: COc1cccc(-c2cc(C(=O)Nc3ccc(-c4ccc(OC5CCN(C)CC5)cc4)cn3)ccc2OC)c1 [Compound 19d, 3′,6-dimethoxy-N-(5-(4-((1-methylpiperidin-4-yl)oxy)phenyl)pyridin-2-yl)-[1,1′-biphenyl]-3-carboxamide]
IC50 [1, 13]: 1070 ± 10 nM | IC50 [2, 14]: 1020 ± 10 nM

Compound: COc1cccc(-c2cc(C(=O)Nc3ccc(-c4ccc(OC5CCN(C)CC5)c(NC(C)=O)c4)cc3)ccc2OC)c1 [Compound 39a, N-(3′-acetamido-4′-((1-methylpiperidin-4-yl)oxy)-[1,1′-biphenyl]-4-yl)-3′,6-dimethoxy-[1,1′-biphenyl]-3-carboxamide]
IC50 [1, 5]: 2660 ± 760 nM | IC50 [2, 6]: 1840 ± 430 nM

Continued, values first:

IC50 [1, 3]: 1520 ± 550 nM | IC50 [2, 4]: 1670 ± 680 nM
Compound: COc1ccc(C(=O)Nc2ccc(-c3ccc(OC4CCN(C)CC4)cc3)cc2)cc1-c1cccc(N)c1 [Compound 50c, 3′-amino-6-methoxy-N-(4′-((1-methylpiperidin-4-yl)oxy)-[1,1′-biphenyl]-4-yl)-[1,1′-biphenyl]-3-carboxamide]

IC50 [1, 7]: 3470 nM | IC50 [2, 8]: 2710 ± 400 nM
Compound: CC(=O)Oc1ccc(C(=O)Nc2cccc(-c3ccc(OC4CCN(C)CC4)cc3)c2)cc1CC=C(C)C [Compound 61e, 2-(3-methylbut-2-en-1-yl)-4-((4′-((1-methylpiperidin-4-yl)oxy)-[1,1′-biphenyl]-3-yl)carbamoyl)phenyl acetate]

IC50 [1, 3]: 3160 ± 370 nM | IC50 [2, 4]: 1600 ± 110 nM
Compound: Cc1ccc(C(=O)Nc2ccc(-c3ccc(OC4CCN(C)CC4)cc3)cc2)cc1-c1cccc(Cl)c1 [Compound 49k]

IC50 [1, 11]: 1320 ± 230 nM | IC50 [2, 12]: 2010 ± 580 nM
Compound: CN1CCC(Oc2ccc(-c3ccc(NC(=O)c4cc5ccccc5s4)cc3)cc2)CC1 [Compound 47b, N-(4′-((1-methylpiperidin-4-yl)oxy)-[1,1′-biphenyl]-4-yl)benzo[b]thiophene-2-carboxamide]

IC50 [1, 11]: 1960 ± 240 nM | IC50 [2, 12]: 2280 ± 490 nM
Compound: Cc1ccc(C(=O)Nc2ccc(-c3ccc(OC4CCN(C)CC4)cc3)cc2)cc1Cl [Compound 41k, 3-chloro-4-methyl-N-(4′-((1-methylpiperidin-4-yl)oxy)-[1,1′-biphenyl]-4-yl)benzamide]

IC50 [1, 11]: 520 ± 210 nM | IC50 [2, 12]: 520 ± 150 nM
Compound: CN1CCC(Oc2ccc(-c3ccc(NC(=O)c4ccc(Br)cc4)cc3)cc2)CC1 [Compound 41c, 4-bromo-N-(4′-((1-methylpiperidin-4-yl)oxy)-[1,1′-biphenyl]-4-yl)benzamide]

IC50 [1, 11]: 6260 ± 1540 nM | IC50 [2, 12]: 6670 ± 830 nM
Compound: CN1CCC(Oc2ccc(-c3ccc(NC(=O)c4ccccc4-c4ccccc4)cc3)cc2)CC1 [Compound 41q, N-(4′-((1-methylpiperidin-4-yl)oxy)-[1,1′-biphenyl]-4-yl)-[1,1′-biphenyl]-2-carboxamide]

IC50 [1, 11]: 1310 ± 180 nM | IC50 [2, 12]: 2070 ± 160 nM
Compound: CN1CCC(Oc2ccc(-c3ccc(NC(=O)c4ccc5ncccc5c4)cc3)cc2)CC1 [Compound 45b, N-(4′-((1-methylpiperidin-4-yl)oxy)-[1,1′-biphenyl]-4-yl)quinoline-6-carboxamide]

IC50 [1, 11]: 800 ± 220 nM | IC50 [2, 12]: 1370 ± 330 nM
Compound: CN1CCC(Oc2ccc(-c3ccc(NC(=O)c4ccc(Cl)cc4Cl)cc3)cc2)CC1 [Compound 41p, 2,4-dichloro-N-(4′-((1-methylpiperidin-4-yl)oxy)-[1,1′-biphenyl]-4-yl)benzamide]

IC50 [1, 11]: 1110 ± 420 nM | IC50 [2, 12]: 1030 ± 160 nM
Compound: Cc1cc(C(=O)Nc2ccc(-c3ccc(OC4CCN(C)CC4)cc3)cc2)ccc1Cl [Compound 41j, 4-chloro-3-methyl-N-(4′-((1-methylpiperidin-4-yl)oxy)-[1,1′-biphenyl]-4-yl)benzamide]

IC50 [1, 7]: 1820 ± 210 nM | IC50 [2, 8]: 1370 ± 180 nM
Compound: CC(=O)Oc1ccc(C(=O)Nc2ccc(-c3ccc(OC4CCN(C)CC4)cc3)cc2)cc1CC=C(C)C [Compound 61j, 2-(3-methylbut-2-en-1-yl)-4-((4′-((1-methylpiperidin-4-yl)oxy)-[1,1′-biphenyl]-4-yl)carbamoyl)phenyl acetate]

IC50 [1, 7]: 2070 ± 350 nM | IC50 [2, 8]: 2770 ± 230 nM
Compound: CN1CCC(Oc2ccc(-c3ccc(NC(=O)C45CC6CC(CC(C6)C4)C5)cc3)cc2)CC1 [Compound 61c, N-(4′-((1-methylpiperidin-4-yl)oxy)-[1,1′-biphenyl]-4-yl)adamantane-1-carboxamide]

IC50 [1, 11]: 2800 ± 180 nM | IC50 [2, 12]: 3350 ± 360 nM
Compound: Cc1ccc(C(=O)Nc2ccc(-c3ccc(OC4CCN(C)CC4)cc3)cc2)cc1Br [Compound 41l, 3-bromo-4-methyl-N-(4′-((1-methylpiperidin-4-yl)oxy)-[1,1′-biphenyl]-4-yl)benzamide]

IC50 [1, 7]: 1760 ± 160 nM | IC50 [2, 8]: 1700 ± 210 nM
Compound: CC(=O)Oc1ccc(C(=O)Nc2cccc(-c3cccc(OC4CCN(C)CC4)c3)c2)cc1CC=C(C)C [Compound 61f, 2-(3-methylbut-2-en-1-yl)-4-((3′-((1-methylpiperidin-4-yl)oxy)-[1,1′-biphenyl]-3-yl)carbamoyl)phenyl acetate]

IC50 [1, 3]: 130 ± 20 nM | IC50 [2, 4]: 500 ± 10 nM
Compound: COc1ccc(C(=O)Nc2ccc(-c3ccc(OC4CCN(C)CC4)cc3)cc2)cc1-c1ccc(O)cc1 [Compound 50b, 4′-hydroxy-6-methoxy-N-(4′-((1-methylpiperidin-4-yl)oxy)-[1,1′-biphenyl]-4-yl)-[1,1′-biphenyl]-3-carboxamide]
